Measured values: patent US8361510B2, “Nanogels for cellular delivery of therapeutics” (Georgia Tech Research Corporation, priority 2008, dated 2013)
Where no end group is shown, it is not given here.

Columns and labels:
Type in all cases: cell-based
Hey cells [1] = assay: Flow cytometry of nanogel binding/uptake; conditions: 0.8 mg/mL nanogels, four hours
Procedure: Flow cytometry. Hey cells were plated at 2.5×10^5 cells/well in a 12-well, cell culture plate. Cells were allowed to adhere overnight in an incubator at 37° C. in a 5% CO2 atmosphere. Cells were washed, and fresh medium was added containing YSA-pNIPMAm or SCR-pNIPMAm nanogels at a concentration of 0.8 mg/mL and incubated for four hours. Following incubation, the cells were washed with PBS and removed from the plate by Trypsin-EDTA treatment. The cells were washed with PBS and fixed with 2% (v/v) paraformaldehyde. Cells were analyzed using a LSR Flow Cytometer (BD Biosciences). Data analysis was carried out using FlowJo software.

Hey cells [2] = assay: Trypan blue exclusion assay
Procedure: Toxicity Studies—Trypan blue exclusion assay. Hey cells were plated onto an 8-well chamber slide (1×10^4 cells/well) and allowed to adhere overnight at 37° C. and 5% CO2. The media was removed, the wells washed with PBS, and the medium replaced. PNIPMAm nanogels, YSA-conjugated nanogels, and SCR-conjugated nanogels were added to cells and incubated for 72 h. Untreated cells were used as controls. After 72 h, the cells washed with PBS, and a 1:1 solution of trypan blue was added to each well. After 1 min, the trypan blue was removed, the cells were washed with PBS, fixed with 2% (v/v) paraformaldehyde, and air dried. Each well was then viewed via bright field microscopy to determine the number of stained (dead) versus unstained cells. Five fields were viewed for each treatment.

Hey cells [3] = assay: Chemosensitization to docetaxel (Tox8), Hey cells; conditions: control treatments
Procedure: Treatment with docetaxel. Hey or SK-OV-3 cells were plated in 96-well cell culture plates at a concentration of 1×10^4 cells/well. Hey or SK-OV-3 cells were subjected to nanogel delivery of siRNA at nanogel concentrations of 1000, 100, 10, and 1 μg/mL. Forty-eight hours after siRNA delivery, docetaxel was added to Hey or SK-OV-3 cells at concentrations ranging from 0.01-1000 nM. Treatment wells were set up in triplicate, and the cells were incubated with docetaxel for an additional 4 days. After treatment, the cells were washed with PBS, and 100 μL of medium was added back to the wells. To this, 10 μL of Tox8 was added to determine cell viability. The cells were incubated with the Tox8 reagent according to the manufacturer's instructions. The fluorescence was measured ([…]) by a Spectramax Gemini Fluorescence Microplate Reader (Molecular Devices, Sunnyvale, Calif.). Wells without cells but with Tox8 were used as controls and subtracted from all treatments as background. Each experiment was performed in duplicate.
Statistical analysis. Statistical analysis of the immunoblot data was performed using a non-parametric ANOVA (Kruskal Wallis) test. If significance was indicated, a Dunn's post-test was used to determine significance between groups. […]

EGFR = EGFR expression by immunoblotting in Hey cells; conditions: Example 2
Procedure: Immunoblotting. Hey cells were plated into 6-well plates (5×10^5/well) and allowed to adhere overnight at 37° C., 5% CO2. The cells were lysed with 100 μL of lysis buffer (50 mM Tris-HCl, pH 7.5, 150 mM NaCl, 2 mM EDTA (Fisher), 2 mM EGTA (Fisher), 1 mM sodium orthovanadate, 2.5 mM sodium pyrophosphate, 1 mM β-gycerolphosphate, 1 mM phenylmethanesulfonyl fluoride, 10 μg/mL aprotinin, 10 μg/mL leupeptin, 1% Triton X-100, and 5% glycerol), and the cell lysates sonicated four times for five seconds each. The lysates were cleared by centrifugation at 11,000×g rcf for […] at 4° C. Cell lysates were prepared for analysis by the addition of an equal volume of Laemmli 2× sample buffer. The samples were heated to 95° C. for […] to denature the proteins. The proteins were separated on a 10% SDS-PAGE gel and transferred onto nitrocellulose. The blots were blocked with either 5% nonfat dry milk (NFDM) or 5% bovine serum albumin (BSA) in 10 mM Tris-buffered saline, pH 7.5 plus 1% Tween 20 (TBST, BioRad) for 1 hour at room temperature. The blots were probed with anti-EGFR antibody (Cell Signaling, Danvers, Mass.; cat. no. 4405) or with a β-actin antibody (Millipore, Billerica, Mass.; Mab1501) diluted in 5% NFDM or 5% BSA overnight, with shaking at 4° C. For EphA2 detection, the blots were probed with an anti-EphA2 polyclonal antibody (Santa Cruz Biotechnology, Santa Cruz, Calif.; sc-294). The blots were washed three times with TBST and probed with goat anti-rabbit IgG (Santa Cruz, sc-2004) or with goat anti-mouse IgG (Santa Cruz, sc-2005) linked to horseradish peroxidase (HRP). Bands were visualized on film (Pierce) using the ECL reagent, SuperSignal West Pico™ (Pierce).
As described above, we chose siRNA targeting EGFR; knockdown of this receptor is non-lethal, but has clinical relevance in the treatment of drug resistant ovarian carcinomas. To determine if we could effectively knockdown EGFR in vitro, EGFR siRNA was encapsulated at a concentration of 16.6 μg of EGFR siRNA/mg of nanogels, using the loading technique described above. […]

| Substance | cell fluorescence relative to cell autofluorescence (Hey cells [1]) | blue (dead) cells (Hey cells [2]) | sensitivity to docetaxel versus untreated controls (Hey cells [3]) | EGFR expression of control treatments compared to untreated cells (EGFR) |
| --- | --- | --- | --- | --- |
| SCR-conjugated nanogels: nanogels bearing the scrambled peptide DYPSMAMYSPSVC (SEQ ID NO 2), control (also: conjugated to nanogels) [reference compound] | only slightly greater than the cell autofluorescence background signal | not observed |  |  |
| YSAYPDSVPMMSC (listed as Homo sapiens) [YSA peptide] |  |  | increased sensitivity to docetaxel | diminished EGFR expression |
